Key:
Assay type in all cases: in vivo
[1] = tested on: canine genes of the array; assay: Canine array fold induction of canine genes in kidney of canines dosed with test agents (Table 11); conditions: dog, 2 mg/kg, 10189, Canine kidney, 2 mg/kg, 2 days, gene = c0 of the row
Source text: (§1) Table 11 depicts the fold induction for canine genes in a canine array.

[2] = tested on: canine genes of the array; assay: Canine array fold induction of canine genes in liver of canines dosed with test agents (Table 11); conditions: dog, 2 mg/kg, 10319, Canine liver, 2 mg/kg, 3 day, gene = c0 of the row
Source text: as §1

[3] = tested on: canine genes differentially expressed in organs (liver, spleen, kidney, testes, heart, thymus); assay: Transcriptome profiling / differential display of tissues from canines exposed to an agent versus vehicle (reverse transcription, PCR, reamplification of bands, sequencing)
[4] = tested on: canine genes in a canine array (Canine kidney); assay: Canine array fold induction of canine genes in kidney of dogs dosed with an agent (Table 11); conditions: Canine kidney, 0.8 mg/kg, 2 days
Source text: as §1

With `CN(Cc1cnc2nc(N)nc(N)c2n1)c1ccc(C(=O)N[C@@H](CCC(=O)O)C(=O)O)cc1` [Methotrexate] the fold induction at 2 days [1] was 1.1 and the fold induction at 3 days [2] was 1.1.
`COc1cc([C@@H]2c3cc4c(cc3[C@@H](O[C@@H]3O[C@@H]5CO[C@@H](C)O[C@H]5[C@H](O)[C@H]3O)[C@H]3COC(=O)[C@H]23)OCO4)cc(OC)c1O` [Etoposide] was tested, and the “Expression Pattern” value ([3]; Band # CTP1D, No significant match) was “upregulated with Etoposide, caffeine”, the “Expression Pattern” value ([3]; Band # CTP1G, No significant match) was “upregulated with Etoposide, caffeine” and the “Expression Pattern” value ([3]; Band # CTP7B, No significant match) was “upregulated in Etoposide treated”. For the same compound, the “Expression Pattern” value ([3]; Band # CTP8A, No significant match) was “repressed in Etoposide treated”, the “Expression Pattern” value ([3]; Band # CTP8C, Human DNA sequence fn HSJ734P14) was “repressed in Etoposide treated” and the “Expression Pattern” value ([3]; Band # CTP10Y, Canis familiaris mitochon CFU96639) was “upregulated in Etoposide treated”. The “Expression Pattern” value ([3]; Band # CTP11A, cyclin-dependent kinase i BC001935) was “upregulated in Etoposide treated”, the “Expression Pattern” value ([3]; Band # CTP16B, Homo sapiens cDNA FLJAK000548) was “repressed in Etoposide treated” and the “Expression Pattern” value ([3]; Band # CTP17G, No significant match) was “repressed in Etoposide treated”. For the same compound, the “Expression Pattern” value ([3]; Band # CTP18B, No significant match) was “upregulated in Etoposide treated”, the “Expression Pattern” value ([3]; Band # CTP19F, Homo sapiens chromosor AC008651) was “upregulated in Etoposide treated” and the “Expression Pattern” value ([3]; Band # CTP34A, Homo sapiens ribosomal NM_001032) was “repressed in Etoposide”.
`C[C@@H]1[C@H](O)[C@@H](C)/C=C/C=C/C=C/C=C/C=C/C=C/C=C/[C@H](O[C@@H]2O[C@H](C)[C@@H](O)[C@H](N)[C@@H]2O)C[C@@H]2O[C@](O)(C[C@@H](O)C[C@@H](O)[C@H](O)CC[C@@H](O)C[C@@H](O)CC(=O)O[C@H]1C)C[C@H](O)[C@H]2C(=O)O` [Amphoteracin-B] was tested, and the BR-cadherin fold induction [4] was 1.0, the Beta-glucuronidase fold induction [4] was 1.1 and the “CD40 ligand fold induction” value [4] was 2.2. For the same compound, the Catalase fold induction [4] was 1.6, the Caveolin-1 fold induction [4] was 1.2 and the Caveolin-2 fold induction [4] was 2.1. For the same compound, the “Cytochrome P450 2B fold induction” value [4] was 1.1, the “Cytochrome P450 2C41 fold induction” value [4] was 1.2 and the “Cytochrome P450 2D fold induction” value [4] was 1.6. For the same compound, the “Cytochrome P450 3A fold induction” value [4] was 1.2, the GRP94 fold induction [4] was 1.2 and the “Glucose transporter fold induction” value [4] was 1.3. For the same compound, the “Glucose-regulated protein 94 #1 fold induction” value [4] was 1.2, the “Glucose-regulated protein 94 #2 fold induction” value [4] was 1.1 and the “Glutathione S-transferase alpha subunit fold induction” value [4] was 1.8. For the same compound, the Interleukin-8 fold induction [4] was 1.2, the Interleukin-10 fold induction [4] was 5.9 and the “Keratinocyte growth factor fold induction” value [4] was 1.6. For the same compound, the Mek5 fold induction [4] was 1.2, the “Metallothionein 1 fold induction” value [4] was 3.1 and the “Paraoxonase2 (PON2) fold induction” value [4] was 2.1. The “Phase-1 CCT-11 fold induction” value [4] was 1.1, the “Phase-1 CCT-59 fold induction” value [4] was 1.1 and the “Phase-1 CCT-60 fold induction” value [4] was 1.3. The “Phase-1 CCT-63 fold induction” value [4] was 1.1, the “Phase-1 CCT-65 fold induction” value [4] was 1.1 and the “Phase-1 CCT-66 fold induction” value [4] was 1.1. The “Phase-1 CCT-68 fold induction” value [4] was 1.1, the “Phase-1 CCT-72 fold induction” value [4] was 1.1 and the “Phase-1 CCT-73 fold induction” value [4] was 1.1. The “Phase-1 CCT-74 fold induction” value [4] was 1.1, the “Phase-1 CCT-78 fold induction” value [4] was 1.1 and the “Phase-1 CCT-84 fold induction” value [4] was 1.5. The “Phase-1 CCT-87 fold induction” value [4] was 1.0, the “Phase-1 CCT-91 fold induction” value [4] was 1.5 and the “Phase-1 CCT-92 fold induction” value [4] was 1.4. For the same compound, the “Phase-1 CCT-94 fold induction” value [4] was 1.1, the “Phenol sulfotransferase fold induction” value [4] was 5.3 and the “Prostaglandin D synthase fold induction” value [4] was 1.4. For the same compound, the Rab2 fold induction [4] was 1.1, the Rab5 fold induction [4] was 1.1 and the Rab7 fold induction [4] was 1.1. The “SHB (Src homology 2 protein) fold induction” value [4] was 1.2, the “Tumor necrosis factor-alpha fold induction” value [4] was 3.5 and the “UV excision repair protein RAD 23 (XP-C) fold induction” value [4] was 1.1. For the same compound, the Ubiquitin fold induction [4] was 1.3, the “ZAP36/annexin IV fold induction” value [4] was 1.1 and the “c-erb B-2 fold induction” value [4] was 1.2. It also gave a p53 fold induction [4] of 1.2.
For `C[C@@H]1[C@H](O)[C@@H](C)/C=C/C=C/C=C/C=C/C=C/C=C/C=C/[C@H](O[C@@H]2O[C@H](C)[C@@H](O)[C@H](N)[C@@H]2O)C[C@@H]2O[C@](O)(C[C@@H](O)C[C@@H](O)[C@H](O)CC[C@@H](O)C[C@@H](O)CC(=O)O[C@H]1C)C[C@H](O)[C@H]2C(=O)O` [Amphoteracin B], the BRCA1 fold induction [4] was 1.1, the Beta-glucuronidase fold induction [4] was 1.3 and the “CD40 ligand fold induction” value [4] was 1.4. For the same compound, the Catalase fold induction [4] was 1.1, the Caveolin-1 fold induction [4] was 1.0 and the Caveolin-2 fold induction [4] was 1.0. The “Cytochrome P450 2B fold induction” value [4] was 1.1, the “Cytochrome P450 2C21 fold induction” value [4] was 1.2 and the “Cytochrome P450 2D fold induction” value [4] was 1.6. For the same compound, the GRP94 fold induction [4] was 1.9, the “Glucose transporter fold induction” value [4] was 1.2 and the Glucose-6-phosphatase fold induction [4] was 1.3. The “Glucose-regulated protein 94 #2 fold induction” value [4] was 1.1, the “Glutathione S-transferase alpha subunit fold induction” value [4] was 1.1 and the Interleukin-8 fold induction [4] was 1.2. The Interleukin-10 fold induction [4] was 1.1, the “Keratinocyte growth factor fold induction” value [4] was 1.1 and the Mek5 fold induction [4] was 1.1. For the same compound, the “Metallothionein 1 fold induction” value [4] was 2.1, the “Multidrug resistant protein-1 fold induction” value [4] was 1.2 and the “Phase-1 CCT-11 fold induction” value [4] was 1.3. The “Phase-1 CCT-61 fold induction” value [4] was 1.1, the “Phase-1 CCT-72 fold induction” value [4] was 1.1 and the “Phase-1 CCT-74 fold induction” value [4] was 1.1. The “Phase-1 CCT-76 fold induction” value [4] was 1.0, the “Phase-1 CCT-78 fold induction” value [4] was 1.0 and the “Phase-1 CCT-80 fold induction” value [4] was 1.9. The “Phase-1 CCT-81 fold induction” value [4] was 1.0, the “Phase-1 CCT-82 fold induction” value [4] was 1.1 and the “Phase-1 CCT-83 fold induction” value [4] was 1.1. The “Phase-1 CCT-87 fold induction” value [4] was 1.1, the “Phase-1 CCT-89 fold induction” value [4] was 1.1 and the “Phase-1 CCT-91 fold induction” value [4] was 1.2. For the same compound, the “Phase-1 CCT-93 fold induction” value [4] was 1.0, the “Phase-1 CCT-97 fold induction” value [4] was 1.0 and the “Phenol sulfotransferase fold induction” value [4] was 1.0. The “Prostaglandin D synthase fold induction” value [4] was 1.3, the Rab2 fold induction [4] was 1.8 and the Rab5 fold induction [4] was 1.1. For the same compound, the Rab7 fold induction [4] was 2.2, the “SHB (Src homology 2 protein) fold induction” value [4] was 1.1 and the “TFCOUP-related (probable steroid hormone receptor) fold induction” value [4] was 1.1. For the same compound, the “Tissue inhibitor of metalloproteinases-1 fold induction” value [4] was 2.5, the “Tumor necrosis factor-alpha fold induction” value [4] was 2.0 and the “UV excision repair protein RAD 23 (XP-C) fold induction” value [4] was 1.0. The Ubiquitin fold induction [4] was 1.0, the “Vascular cell adhesion molecule 1 (VCAM-1) fold induction” value [4] was 3.5 and the “ZAP36/annexin IV fold induction” value [4] was 1.4. The “c-erb B-2 fold induction” value [4] was 1.3, the “p38 MAPK fold induction” value [4] was 1.2 and the p53 fold induction [4] was 1.4.
For `N.N.[Cl][Pt+2][Cl]` [transplatin], the “Expression Pattern” value ([3]; Band # CTP60B, Homo sapiens RNA bindii XM_016120) was “repressed with carbo and trans platin”, the “Expression Pattern” value ([3]; Band # CTP65A, Pig mRNA for endoplasm X16951) was “repressed with carbo and trans platin” and the “Expression Pattern” value ([3]; Band # CTP74A, No significant match) was “repressed with carbo, trans and cisplatin”. The “Expression Pattern” value ([3]; Band # CTP75C, No significant match) was “repressed with carbo, trans and cisplatin”, the “Expression Pattern” value ([3]; Band # CTP85D, Homo sapiens Rho-assoc XM_008814) was “repressed with carbo, trans and cisplatin” and the “Expression Pattern” value ([3]; Band # CTP122I, Human mRNA for KIAA0(D26067)) was “repressed with carbo and transplatin”. For the same compound, the “Expression Pattern” value ([3]; Band # CTP129A, Homo sapiens, Similar to BC007583) was “induced with transplatin”, the “Expression Pattern” value ([3]; Band # CTP185C, No significant match) was “induced with carbo and trans platin” and the “Expression Pattern” value ([3]; Band # CTP206A, Homo sapiens fatty acid c NM_013402) was “repressed with carbo and transplatin”. The “Expression Pattern” value ([3]; Band # CTP208B, No significant match) was “induced with transplatin” and the “Expression Pattern” value ([3]; dog, in vivo) was “repressed with carbo and trans platin”.
